Experimental data published in patent US20100292137A1, “Antibiotics and Methods For Producing Them” (priority 2006, published 2010).
≈ marks a conversion by molar mass, not a printed value. Starred links: 1 amine or outer side, 2 acyl side, 3 side chain; linkers in the order of their positions; H or OH if unused. Positions of bridges follow the written chain, without caps; N, C: chain ends. Non-standard residues stand in square brackets, D forms with d. Residues, ends and D or L forms follow the SMILES beside them. *: point of attachment. X1 = NC1=N[C@@H]([C@H](N[*:1])C(=O)[*:2])C[C@H](O)N1; ΔAla(Z-3-ureido) = NC(=O)N/C=C(\N)C(=O)O; β3hOrn = NCCC[C@H](N)CC(=O)*; Dap = NC[C@H](N)C(=O)O

How the values were obtained:
M. smegmatis [1] = conditions: tlyA mutant P2U; cited from earlier work
E. coli DH1 = assay: microbe, parasite or virus in culture; assay type: cell-based; conditions: Escherichia coli, DH1, read-out: Minimal inhibitory concentrations
E. coli strain AS19 = assay: Agar plate MIC on hyperpermeable E. coli AS19; conditions: Escherichia coli
Method: Escherichia coli strain DH1 was used for cloning and expressing recombinant tlyA, and was grown by standard techniques (Sambrook et al., 1989). The hyperpermeable E. coli strain AS19 (Sekiguchi and Iida, 1967) was additionally used to express tlyA.
Overnight cultures of E. coli DH1 and AS19 strains were diluted 10^5-fold and plated onto agar containing viomycin (US Pharmacopeia), capreomycin, kanamycin or rifampicin (Sigma) with concentrations increasing in two-fold steps. The agar plates were incubated at 37° C.; and after 22 h, MICs were scored as the lowest concentration at which no growth was observed.

M. smegmatis [2] = assay: microbe, parasite or virus in culture; assay type: cell-based, Mycobacterium smegmatis
[3] = system: 70S ribosome (30S, 50S and 70S particles); assay type: binding, Mycobacterium smegmatis
[4] = system: S. coelicolor M145 and derived mutants; assay type: cell-based, Streptomyces coelicolor
S. avermitilis MA4630 = assay type: cell-based, Streptomyces avermitilis

NCC[C@H](O)C(=O)N[C@@H]1C[C@H](N)[C@@H](O[C@H]2O[C@H](CN)[C@@H](O)[C@H](O)[C@H]2O)[C@H](O)[C@H]1O[C@H]1O[C@H](CO)[C@@H](O)[C@H](N)[C@H]1O [amikacin]
susceptibility (M. smegmatis [1]): susceptible

NC[C@H]1O[C@H](O[C@H]2[C@H](O)[C@@H](O[C@H]3O[C@H](CO)[C@@H](O)[C@H](N)[C@H]3O)[C@H](N)C[C@@H]2N)[C@H](O)[C@@H](O)[C@@H]1O [kanamycin]
MIC (E. coli DH1): 4 µg/mL (≈ 8.26 µM)

CO[C@H]1/C=C/O[C@@]2(C)Oc3c(C)c(O)c4c(O)c(c(/C=N/N5CCN(C)CC5)c(O)c4c3C2=O)NC(=O)/C(C)=C\C=C\[C@H](C)[C@H](O)[C@@H](C)[C@@H](O)[C@@H](C)[C@H](OC(C)=O)[C@@H]1C [rifampicin]
MIC (E. coli DH1): 4 µg/mL (≈ 4.86 µM)
MIC (E. coli strain AS19): 0.1 µg/mL (≈ 0.122 µM)

NCCC[C@H](N)CC(=O)N[C@H]1CNC(=O)[C@H]([C@H]2C[C@H](O)NC(N)=N2)NC(=O)/C(=C/NC(N)=O)NC(=O)[C@H](CO)NC(=O)[C@H](CO)NC1=O [viomycin] (β3hOrn-[Dap]SS[ΔAla(Z-3-ureido)][X1]; lactam 1-C)
MIC (M. smegmatis [2]; Mycolicibacterium smegmatis): 20 to 40 µg/mL (≈ 29.2 to 58.3 µM)
binding interactions with the ribosome (footprints) [3]: occur only when the ribosomal subunits are associated into 70S couples

capreomycin
MIC, minimal inhibitory concentration of capreomycin (M. smegmatis [2]): <10 µg/mL
MIC value [4]: 1 to 5 µg/mL
capreomycin concentration above which the strain is unable to grow [4]: 5 µg/mL
capreomycin concentration at which the strain grew very well [4]: 100 µg/mL
capreomycin concentration at which the strain still grows [4]: 100 µg/mL
capreomycin sensitivity after complementation [4]: regained capreomycin sensitivity
resistance relative to parent M145 [4]: more than 100 fold
binding interactions with the ribosome (footprints) [3]: occur only when the ribosomal subunits are associated into 70S couples
MIC value (S. avermitilis MA4630): 1 to 5 µg/mL
